Values quoted from earlier work, collected in US12527811B2, “Defibrotide for the prevention and treatment of cytokine release syndrome and neurotoxicity associated with immunodepletion” (priority 2018, dated 2026).
Read-outs that look alike come from different tables or passages of the source.

How the values were obtained:
IL-6R = target: T1, IL-6R (Homo sapiens, UniProt P08887); conditions: read-out: affinity (Kd) for IL-6R; cited from earlier work
T1 sequence (P08887 20-468): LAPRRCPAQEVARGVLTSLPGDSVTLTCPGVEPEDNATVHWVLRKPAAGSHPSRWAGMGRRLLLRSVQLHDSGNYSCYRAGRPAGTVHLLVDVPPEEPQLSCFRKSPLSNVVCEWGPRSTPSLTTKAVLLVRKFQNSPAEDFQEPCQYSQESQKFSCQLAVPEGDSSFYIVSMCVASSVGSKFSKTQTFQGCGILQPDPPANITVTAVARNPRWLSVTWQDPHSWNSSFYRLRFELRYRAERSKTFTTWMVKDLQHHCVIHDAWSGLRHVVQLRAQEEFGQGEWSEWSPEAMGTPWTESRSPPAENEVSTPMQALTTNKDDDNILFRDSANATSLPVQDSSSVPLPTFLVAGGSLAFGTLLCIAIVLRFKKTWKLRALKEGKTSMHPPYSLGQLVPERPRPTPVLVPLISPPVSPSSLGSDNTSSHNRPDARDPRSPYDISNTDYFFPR

IL-6 = IL-6 (Homo sapiens, UniProt P05231); conditions: cited from earlier work
IL-6, sequence (P05231 30-212): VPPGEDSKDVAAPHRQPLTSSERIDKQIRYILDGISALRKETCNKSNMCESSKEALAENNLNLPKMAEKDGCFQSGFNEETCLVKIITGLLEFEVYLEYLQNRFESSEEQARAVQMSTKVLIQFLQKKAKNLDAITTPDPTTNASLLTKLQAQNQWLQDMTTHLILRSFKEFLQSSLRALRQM

[1] = in vivo; cited from earlier work
[2] = ZUMA-1, one hundred and one adult patients with refractory aggressive B-cell NHL; cited from earlier work
[3] = JULIET, ninety-three adult patients with relapsed or refractory DLBLC; cited from earlier work

## IL-6: cytokine that binds IL-6R
IL-6R
  Kd: ~1 nM

## tocilizumab [reference compound]
IL-6R
  Kd: 2.54 nM

## siltuximab
IL-6
  Kd: ~0.001 nM
[1]
  effect on CRS symptoms: rapid reversal of CRS symptoms in most patients

## Axicabtagene ciloleucel [Axi-cel]
[2]
  rate of grade>3 CRES: 28%
  rate of grade>3 CRS: 13%

## tisagenlecleucel
[3]
  rate of grade>3 CRES: 12%
  rate of grade>3 CRS: 22%
